Source: patent US11008334B2, “Compositions and methods for treating cancer” (The Regents of the University of California, priority 2012, dated 2021)
Where two headings read alike, the source gives them in different places.

Legend:
[1] = molecular target: T1, K-RasG12C (1-169) (Homo sapiens, UniProt P01116, G12C); test: Disulfide library (tethering) screen, covalent modification by mass spectrometry; format: binding; conditions: 200 micM BME; read-out: Potency/ Labeling (EC50 at 200 micM BME) Tethering
T1 construct: Un-tagged recombinant K-Ras G12C (1-169) at 4 μM in Buffer A; hexahistidine (cleaved yes); made in house; host or cells: Escherichia coli BL21 (DE)

[2] = molecular target: T1, K-RasG12C (1-169); test: Mass spectrometric screen for extent of covalent labeling; format: binding; conditions: for percent covalent labeling at 10 µM: 10 micromolar; for Labeling % (10 micM) 24h: 10 micM compound, (plate) or (single) measurement
Protocol: Un-tagged recombinant K-Ras G12C (1-169) at 4 μM in Buffer A was reacted with inhibitors at 200 μM or 10 μM (2% DMSO final). At 2, 6, and 24 hrs, 10 μL aliquots were removed and the reactions were stopped by addition of 1 μL 2% formic acid. The extent of modification was determined by mass spectrometry.

[3] = test system: binding of RasGTP to Raf1-RBD; test: Raf1-RBD pull-downs; conditions: after EDTA-catalyzed exchange
[4] = test system: G12C cell lines; test: Proliferation of human lung cancer cell lines; format: cell-based; conditions: 24 hr treatment (0.5% FBS), 48 hr washout (10% FBS)
[5] = 2 h, 2 hrs, read-out: Percent reduction in activity of compound at 10 micromolar relative to control (no compound), 2 hrs
[6] = 6 h, 6 hrs, read-out: Percent reduction in activity of compound at 10 micromolar relative to control (no compound), 6 hrs
[7] = 24 h, 24 hrs, read-out: Percent reduction in activity of compound at 10 micromolar relative to control (no compound), 24 hrs

Compound | EC50 [1] | percent covalent labeling at 10 µM [2, 5] | percent covalent labeling at 10 µM [2, 6] | percent covalent labeling at 10 µM [2, 7] | Labeling % (10 micM) 24h ([2]; Table 5) | binding of RasGTP to Raf1-RBD [3] | sensitivity of proliferation of G12C cell lines [4] | Labeling % (10 micM) 24h [2]
O=C(NCCS)C1CCN(C(=O)COc2ccc(Cl)cc2Cl)CC1 [JO-01-148] | 40 to 60 µM | – | – | – | – | – | – | –
C=CC(=O)N1CCN(C(=O)CNc2cc(C(F)(F)F)c(Cl)cc2OC)CC1 [Ras-066] | – | ≤ 5% | ≤ 5% | 5 to 20% | – | – | – | –
C=CS(=O)(=O)NC1CCN(C(=O)COc2ccc(Cl)cc2C(F)(F)F)CC1 [Ras-067] | – | ≤ 5% | ≤ 5% | 5 to 20% | – | – | – | –
C=CS(=O)(=O)NC1CCN(CC(=O)Nc2cc(Cl)c(Cl)cc2I)CC1 [Ras-068] | – | ≤ 5% | ≤ 5% | ≤ 5% | – | – | – | –
C#CCOc1cc(OCC(=O)N2CCC(NS(=O)(=O)C=C)CC2)c(Cl)cc1Cl [Ras-069] | – | ≤ 5% | 5 to 20% | > 60% | +++ (single) (20%< +++ <=40%) | – | – | –
C=CS(=O)(=O)NC1CCN(C(=O)COc2cc(CCO)c(Cl)cc2Cl)CC1 [Ras-070] | – | ≤ 5% | ≤ 5% | 20 to 40% | – | – | – | –
C#Cc1cc(OCC(=O)N2CCC(NS(=O)(=O)C=C)CC2)c(Cl)cc1Cl [Ras-071] | – | ≤ 5% | ≤ 5% | 40 to 60% | – | – | – | –
C=CS(=O)(=O)N1CCC(Nc2cc(-c3cc(Cl)c(Cl)cc3I)ccn2)CC1 [Ras-072] | – | ≤ 5% | ≤ 5% | ≤ 5% | – | – | – | –
C=CC(=O)N1CCN(C(=O)CNc2cc(Cl)c(Cl)cc2O)CC1 [Ras-073] | – | – | 20 to 40% | > 60% | – | – | – | –
C=CS(=O)(=O)NC1CCN(C(=O)COc2cc(C(C)(C)O)c(Cl)cc2Cl)CC1 [Ras-074] | – | – | – | 40 to 60% | – | – | – | –
C=CS(=O)(=O)NC1CCN(C(=O)CNc2cc(OC)c(Cl)cc2I)CC1 [Ras-077] | – | – | 5 to 20% | > 60% | – | – | – | –
C=CS(=O)(=O)NC1CCN(C(=O)CNc2cc(I)c(Cl)cc2OC)CC1 [Ras-079] | – | 20 to 40% | > 60% | > 60% | +++++ (single) (60% < +++++) | – | – | –
C=CC(=O)N1CCN(C(=O)CNc2cc(I)c(Cl)cc2OC)CC1 [Ras-080] | – | – | – | 20 to 40% | – | – | – | –
C=CS(=O)(=O)NC1CCN(C(=O)CNc2cc(-c3ccccc3)c(Cl)cc2OC)CC1 [Ras-082] | – | – | 20 to 40% | > 60% | – | – | – | –
C=CC(=O)N1CCN(C(=O)CNc2cc(I)c(Cl)cc2O)CC1 [Ras-083] | – | – | 20 to 40% | > 60% | – | impairs binding of RasGTP to Raf1-RBD | significantly more sensitive | –
C=CS(=O)(=O)NC1CCN(C(=O)CNc2cc(I)c(Cl)cc2O)CC1 [Ras-084] | – | 20 to 40% | > 60% | > 60% | – | – | – | –
C=CS(=O)(=O)NC1CCN(C(=O)CNc2cc(CC)c(Cl)cc2OC)CC1 [Ras-085] | – | 5 to 20% | 20 to 40% | > 60% | – | – | – | –

Compound | EC50 [1] | percent covalent labeling at 10 µM [2, 5] | percent covalent labeling at 10 µM [2, 6] | percent covalent labeling at 10 µM [2, 7] | Labeling % (10 micM) 24h ([2]; Table 5) | binding of RasGTP to Raf1-RBD [3] | sensitivity of proliferation of G12C cell lines [4] | Labeling % (10 micM) 24h [2]
C=CS(=O)(=O)NC1CCN(C(=O)CNc2cc(-c3ccccc3)c(Cl)cc2I)CC1 [Ras-086] | – | – | – | 40 to 60% | – | – | – | –
C=CS(=O)(=O)NC1CCN(C(=O)COc2c(Cl)cc(Cl)c3cccnc23)CC1 [UP-I-154A] | – | ≤ 5% | ≤ 5% | ≤ 5% | – | – | – | –
C=CS(=O)(=O)NC1CCN(C(=O)CSc2cn(CC)c3ccccc23)CC1 [UP-I-154B] | – | ≤ 5% | ≤ 5% | ≤ 5% | – | – | – | –
C=CS(=O)(=O)NC1CCN(C(=O)COc2ncnc3sc(C)cc23)CC1 [UP-I-154K] | – | ≤ 5% | ≤ 5% | ≤ 5% | – | – | – | –
C=CS(=O)(=O)NC1CCN(C(=O)CSc2nc3cc(C)ccc3[nH]2)CC1 [UP-I-160B] | – | ≤ 5% | ≤ 5% | ≤ 5% | – | – | – | –
C=CS(=O)(=O)NC1CCN(C(=O)COc2c(Cl)cc(Cl)cc2NC(=O)OC(C)(C)C)CC1 [UP-I-162B] | – | ≤ 5% | ≤ 5% | ≤ 5% | – | – | – | –
C=CS(=O)(=O)NC1CCN(C(=O)CSc2nnc(C)s2)CC1 [UP-I-164A] | – | ≤ 5% | ≤ 5% | ≤ 5% | – | – | – | –
C=CS(=O)(=O)NC1CCN(C(=O)CSc2nnc(C)o2)CC1 [UP-I-164B] | – | ≤ 5% | ≤ 5% | ≤ 5% | – | – | – | –
C=CS(=O)(=O)NC1CCN(C(=O)CSc2n[nH]c(C)n2)CC1 [UP-I-164C] | – | ≤ 5% | ≤ 5% | ≤ 5% | – | – | – | –
C=CS(=O)(=O)NC1CCN(C(=O)COc2c(Cl)cc(Cl)cc2-c2ccno2)CC1 [UP-I-165B] | – | ≤ 5% | ≤ 5% | ≤ 5% | – | – | – | –
C=CS(=O)(=O)NC1CCN(C(=O)COc2ccc3nncn3n2)CC1 [UP-I-165C] | – | ≤ 5% | ≤ 5% | ≤ 5% | – | – | – | –
C=CS(=O)(=O)NC1CCN(C(=O)CSc2nc(C)cs2)CC1 [UP-I-165D] | – | ≤ 5% | ≤ 5% | ≤ 5% | – | – | – | –
C=CS(=O)(=O)NC1CCN(C(=O)COc2c(Cl)cc(Cl)c3c2OC(C)(C)O3)CC1 [UP-I-177C] | – | ≤ 5% | 5 to 20% | 40 to 60% | ++++ (plate) (40% < ++++ <=60%) | – | – | ++++ (plate) (40% < ++++ <=60%)
C=CS(=O)(=O)NC1CCN(C(=O)COc2c(Br)cc(Br)c3c2OC(C)(C)O3)CC1 [UP-I-177D] | – | ≤ 5% | ≤ 5% | > 60% | – | – | – | –
C=CS(=O)(=O)NC1CCN(C(=O)CNc2c(Cl)cc(Cl)c3nsnc23)CC1 [UP-I-185a] | – | 5 to 20% | 20 to 40% | > 60% | +++++ (single) (60% < +++++) | – | – | +++++ (single) (60% < +++++)
C=CS(=O)(=O)NC1CCN(C(=O)COc2c(N)cc(Cl)cc2Cl)CC1 [UP-I-185b] | – | ≤ 5% | ≤ 5% | 5 to 20% | – | – | – | –
C=CS(=O)(=O)NC1CCN(C(=O)CNc2c(Cl)cc(Cl)c3nonc23)CC1 [UP-I-187] | – | ≤ 5% | ≤ 5% | 20 to 40% | +++ (single) (20%< +++ <=40%) | – | – | –
